Test results: US20060069123A1, “Substituted dipiperidine CCR2 antagonists” (priority 2004, published 2006)
pIC50: −log10 of the molar value. Where two headings read alike, the source gives them in different places.

Tests used:
[1] = system: THP-1 cells; experiment: MCP-1 Induced Chemotaxis in THP-1 Cells; type: cell-based; details: Homo sapiens; THP-1 cells, MCP-1 0.01 μg/mL, 3 hours; read-out: Inhibition of MCP-1 Induced Chemotaxis IC50
[2] = molecular target: T1, CCR2 (Homo sapiens, UniProt P41597)
T1 sequence (P41597 1-360 isoform P41597-2): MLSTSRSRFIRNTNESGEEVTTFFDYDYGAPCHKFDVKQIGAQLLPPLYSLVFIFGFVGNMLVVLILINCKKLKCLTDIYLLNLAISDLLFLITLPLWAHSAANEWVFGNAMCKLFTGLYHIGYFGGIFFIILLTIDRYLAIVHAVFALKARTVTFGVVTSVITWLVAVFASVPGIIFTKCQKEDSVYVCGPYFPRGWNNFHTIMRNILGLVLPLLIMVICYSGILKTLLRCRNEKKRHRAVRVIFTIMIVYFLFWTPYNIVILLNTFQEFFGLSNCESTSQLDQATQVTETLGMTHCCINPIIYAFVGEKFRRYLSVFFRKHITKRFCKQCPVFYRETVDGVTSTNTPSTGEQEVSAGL

[3] = system: THP-1 cells; details: Homo sapiens, THP-1, read-out: Inhibition of MCP-1 Induced Calcium Ion Influx IC50

pIC50 [1] | pIC50 [2] | pIC50 [3] | Compound
7.05 | 7.15 | 6.92 | COc1ccc(C2CCN([C@H](CO)C3CCN(C(=O)/C=C/c4cc(F)cc(F)c4)CC3)CC2)cc1 [Cpd 180, (2E)-3-(3,5-difluoro-phenyl)-1-(4-{(1S)-2-hydroxy-1-[4-(4-methoxy-phenyl)-piperidin-1-yl]-ethyl}-piperidin-1-yl)-propenone]
7.15 | 7.40 | 6.80 | COc1ccc(C2CCN([C@@H](CO)C3CCN(C(=O)/C=C/c4cc(F)cc(F)c4)CC3)CC2)cc1 [Cpd 181, (2E)-3-(3,5-difluoro-phenyl)-1-(4-{(1R)-2-hydroxy-1-[4-(4-methoxy-phenyl)-piperidin-1-yl]-ethyl}-1-piperidin-1-yl)-propenone]
6.46 | 6.48 | 5.10 | O=C(/C=C/c1cc(F)cc(F)c1)N1CCC(C(CO)N2CCC(c3ccncc3)CC2)CC1 (stereo not drawn) [Cpd 182, (2E)-3-(3,5-difluoro-phenyl)-1-{4-[2-hydroxy-1-(3,4,5,6-tetrahydro-2H-[4,4′]bipyridinyl-1-yl)-ethyl]-piperidin-1-yl}-propenone]
6.40 | 6.33 | 5.03 | O=C(/C=C/c1cc(F)c(F)c(F)c1)N1CCC(C(CO)N2CCC(c3ccncc3)CC2)CC1 (stereo not drawn) [Cpd 183, (2E)-1-{4-[2-hydroxy-1-(3,4,5,6-tetrahydro-2H-[4,4′]bipyridinyl-1-yl)-ethyl]-piperidin-1-yl}-3-(3,4,5-trifluoro-phenyl)-propenone]
6.47 | 6.08 | 5.34 | O=C(/C=C/c1ccc(Cl)c(Cl)c1)N1CCC(C(CO)N2CCC(c3ccncc3)CC2)CC1 (stereo not drawn) [Cpd 185, (2E)-3-(3,4-dichloro-phenyl)-1-{4-[2-hydroxy-1-(3,4,5,6-tetrahydro-2H-[4,4′]bipyridinyl-1-yl)-ethyl]-piperidin-1-yl}-propenone]
6.02 | 6.44 | 5.21 | O=C(/C=C/c1ccc(F)c(Br)c1)N1CCC(C(CO)N2CCC(c3ccncc3)CC2)CC1 (stereo not drawn) [Cpd 186, (2E)-3-(3-bromo-4-fluoro-phenyl)-1-{4-[2-hydroxy-1-(3,4,5,6-tetrahydro-2H-[4,4′]bipyridinyl-1-yl)-ethyl]-piperidin-1-yl}-propenone]
8.70 | 9.22 | 10.30 | O=C(/C=C/c1cc(F)c(F)c(F)c1)N1CCC([C@@H](CO)N2CCC(c3c[nH]c4ccccc34)CC2)CC1 [Cpd 187, (2E)-1-(4-{(1S)-2-hydroxy-1-[4-(1H-indol-3-yl)-piperidin-1-yl]-ethyl}-piperidin-1-yl)-3-(3,4,5-trifluoro-phenyl)-propenone]
7.70 | 7.53 | 8.00 | O=C(/C=C/c1cc(F)c(F)c(F)c1)N1CCC([C@H](CO)N2CCC(c3c[nH]c4ccccc34)CC2)CC1 [Cpd 188, (2E)-1-(4-{(1R)-2-hydroxy-1-[4-(1H-indol-3-yl)-piperidin-1-yl]-ethyl}-piperidin-1-yl)-3-(3,4,5-trifluoro-phenyl)-propenone]
6.14 | 6.77 | 6.80 | O=C(/C=C/c1cc(F)c(F)c(F)c1)N1CCC(C(CO)N2CCC(c3ccc4c(c3)OCO4)CC2)CC1 (stereo not drawn) [Cpd 189, (2E)-1-{4-[1-(4-benzo[1,3]dioxol-5-yl-piperidin-1-yl)-2-hydroxy-ethyl]-piperidin-1-yl}-3-(3,4,5-trifluoro-phenyl)-propenone]
6.70 | 6.68 | 6.60 | O=C(/C=C/c1cc(F)cc(F)c1)N1CCC(C(CO)N2CCC(c3ccc4c(c3)OCO4)CC2)CC1 (stereo not drawn) [Cpd 190]
6.82 | 7.00 | 6.77 | Nc1ccc2[nH]cc(C3CCN(C(CO)C4CCN(C(=O)/C=C/c5cc(F)c(F)c(F)c5)CC4)CC3)c2n1 (stereo not drawn) [Cpd 191, (2E)-1-(4-{1-[4-(5-amino-1H-pyrrolo[3,2-b]pyridin-3-yl)-piperidin-1-yl]-2-hydroxy-ethyl}-piperidin-1-yl)-3-(3,4,5-trifluoro-phenyl)-propenone]
6.46 | 6.66 | 6.77 | O=C(/C=C/c1cc(F)cc(F)c1)N1CCC(C(CO)N2CCC(c3ccc(F)cc3)CC2)CC1 (stereo not drawn) [Cpd 192, (2E)-3-(3,5-difluoro-phenyl)-1-(4-{1-[4-(4-fluoro-phenyl)-piperidin-1-yl]-2-hydroxy-ethyl}-piperidin-1-yl)-propenone]
5.89 | 6.85 | 6.85 | O=C(/C=C/c1cc(F)c(F)c(F)c1)N1CCC(C(CO)N2CCC(c3ccc(F)cc3)CC2)CC1 (stereo not drawn) [Cpd 193]
9.70 | 9.22 | 10.70 | CS(=O)(=O)Nc1ccc2[nH]cc(C3CCN(C(CO)C4CCN(C(=O)/C=C/c5ccc(Cl)c(Cl)c5)CC4)CC3)c2c1 (stereo not drawn) [Cpd 198, N-{3-[1-(1-{1-[(2E)-3-(3,4-dichloro-phenyl)-acryloyl]-piperidin-4-yl}-2-hydroxy-ethyl)-piperidin-4-yl]-1H-indol-5-yl}-methanesulfonamide]
7.52 | 7.70 | 8.40 | CS(=O)(=O)Nc1ccc2[nH]cc(C3CCN(C(COC(=O)/C=C/c4cc(F)cc(F)c4)C4CCN(C(=O)/C=C/c5cc(F)cc(F)c5)CC4)CC3)c2c1 (stereo not drawn) [Cpd 199, (2E)-3-(3,5-difluoro-phenyl)-acrylic acid 2-{1-[(2E)-3-(3,5-difluoro-phenyl)-acryloyl]-piperidin-4-yl}-2-[4-(5-methanesulfonylamino-1H-indol-3-yl)-piperidin-1-yl]-ethyl ester]
8.52 | 9.00 | 9.22 | CS(=O)(=O)Nc1ccc2[nH]cc(C3CCN(C(CO)C4CCN(C(=O)/C=C/c5cc(F)c(F)c(F)c5)CC4)CC3)c2c1 (stereo not drawn) [Cpd 201, N-{3-[1-(2-hydroxy-1-{1-[(2E)-3-(3,4,5-trifluoro-phenyl)-acryloyl]-piperidin-4-yl}-ethyl)-piperidin-4-yl]-1H-indol-5-yl}-methanesulfonamide]
7.82 | 7.71 | 8.10 | O=C(/C=C/c1cc(F)cc(F)c1)N1CCC(C(CO)N2CCC(c3c[nH]c4ncccc34)CC2)CC1 (stereo not drawn) [Cpd 202, (2E)-3-(3,5-difluoro-phenyl)-1-(4-{2-hydroxy-1-[4-(1H-pyrrolo[2,3-b]pyridin-3-yl)-piperidin-1-yl]-ethyl}-piperidin-1-yl)-propenone]
5.92 | 6.29 | 5.30 | COc1ccccc1C1CCN(C(CO)C2CCN(C(=O)/C=C/c3cc(F)cc(F)c3)CC2)CC1 (stereo not drawn) [Cpd 203, (2E)-3-(3,5-difluoro-phenyl)-1-(4-{2-hydroxy-1-[4-(2-methoxy-phenyl)-piperidin-1-yl]-ethyl}-piperidin-1-yl)-propenone]
7.40 | 7.40 | 7.70 | O=C(/C=C/c1cc(F)cc(F)c1)N1CCC(C(CO)N2CCC(c3c[nH]c4c3ccc[n+]4[O-])CC2)CC1 (stereo not drawn) [Cpd 205, (2E)-3-(3,5-difluoro-phenyl)-1-(4-{2-hydroxy-1-[4-(7-oxy-1H-pyrrolo[2,3-b]pyridin-3-yl)-piperidin-1-yl]-ethyl}-piperidin-1-yl)-propenone]
6.72 | 6.68 | 6.96 | O=C(O)C(C1CCN(C(=O)/C=C/c2cc(F)c(F)c(F)c2)CC1)N1CCC(c2c[nH]c3cccnc23)CC1 (stereo not drawn) [Cpd 207, [4-(1H-pyrrolo[3,2-b]pyridin-3-yl)-piperidin-1-yl]-{1-[(2E)-3-(3,4,5-trifluoro-phenyl)-acryloyl]-piperidin-4-yl}-acetic acid]
